Activity calls are given as the source filed them. The calls are words filed in the database; no cut-off is given here.
Experiments:
[1] = target: T1, Protein-S-isoprenylcysteine O-methyltransferase (Homo sapiens, UniProt O60725); assay: Activity at human isoprenylcysteine carboxyl methyltransferase using [14C]SAM by vapor diffusion assay relative to AFC
[2] = target: T1, Protein-S-isoprenylcysteine O-methyltransferase; assay: Inhibition of human isoprenylcysteine carboxyl methyltransferase using [14C]SAM and N-acetyl-S-farnesyl-L-cysteine as substrate at 10 uM after 30 mins by vapor diffusion assay
[3] = target: T1, Protein-S-isoprenylcysteine O-methyltransferase; assay: Inhibition of isoprenylcysteine carboxyl methyltransferase in human Jurkat cells assessed as mislocalization of GFP-K-Ras at 10 uM after 24 hrs by fluorescence microscopic analysis; type: cell-based
[4] = target: T1, Protein-S-isoprenylcysteine O-methyltransferase; assay: Un-competitive inhibition of human isoprenylcysteine carboxyl methyltransferase using [14C]SAM and N-acetyl-S-farnesyl-L-cysteine as substrate by Lineweaver-Burk plot analysis
[5] = target: T1, Protein-S-isoprenylcysteine O-methyltransferase; assay: Inhibition of human isoprenylcysteine carboxyl methyltransferase using [14C]SAM and N-acetyl-S-farnesyl-L-cysteine as substrate after 30 mins by vapor diffusion assay
[6] = target: T1, Protein-S-isoprenylcysteine O-methyltransferase; assay: Competitive inhibition of human isoprenylcysteine carboxyl methyltransferase using [14C]SAM and N-acetyl-S-farnesyl-L-cysteine as substrate by Lineweaver-Burk plot analysis
[7] = target: T1, Protein-S-isoprenylcysteine O-methyltransferase; assay: Inhibition of isoprenylcysteine carboxyl methyltransferase in human Jurkat cells assessed as mislocalization of GFP-K-Ras at 45 uM after 24 hrs by fluorescence microscopic analysis; type: cell-based

T1 sequence (O60725 whole entry, the tested form may be a part): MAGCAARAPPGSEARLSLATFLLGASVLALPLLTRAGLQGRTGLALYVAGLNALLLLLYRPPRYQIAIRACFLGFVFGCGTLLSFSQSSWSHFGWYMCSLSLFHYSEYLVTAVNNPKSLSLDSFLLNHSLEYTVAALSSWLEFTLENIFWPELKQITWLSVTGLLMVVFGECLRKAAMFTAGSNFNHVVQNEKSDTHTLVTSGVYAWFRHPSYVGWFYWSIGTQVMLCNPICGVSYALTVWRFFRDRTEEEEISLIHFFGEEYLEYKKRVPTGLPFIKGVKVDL

| SMILES | Activity [1] | inhibition [2] [%] | other results |
| --- | --- | --- | --- |
| CC(C)=CCC/C(C)=C/CC/C(C)=C/CSCCC(=O)O | 50% | 28 | – |
| CC(C)=CCC/C(C)=C/CC/C(C)=C/CSCC1OCCO1 | inactive | 9 | – |
| CC(C)=CCC/C(C)=C/CC/C(C)=C/CSCCN | inactive | 6 | – |
| COC(=O)C(F)(F)SC/C=C(\C)CC/C=C(\C)CCC=C(C)C | inactive | 68 | – |
| CC(C)=CCC/C(C)=C/CC/C(C)=C/CCSCCO | inactive | 20 | – |
| CC(C)=CCC/C(C)=C/CC/C(C)=C/CSC(C)(C)CO | inactive | 32 | – |
| CC(C)=CCC/C(C)=C/CC/C(C)=C/CSC(C)(C)C(=O)O | inactive | 27 | – |
| CC(C)=CCC/C(C)=C/CC/C(C)=C/CSCCO | inactive | 93 | inhibition [3]: Active; Kiuc [4]: 0.43 µM; IC50 [5]: 860 nM; Kic [6]: 0.44 µM |
| CC(C)=CCC/C(C)=C/CC/C(C)=C/CSCCCO | inactive | 34 | – |
| CCC(C)(C)C(=O)O[C@H]1C[C@@H](C)C=C2C=C[C@H](C)[C@H](CC[C@@H]3C[C@@H](O)CC(=O)O3)[C@H]21 | – | – | inhibition [7]: Active |
| CC(C)=CCC/C(C)=C/CC/C(C)=C/CSCCC(=O)NO | inactive | 22 | – |
| CC(C)=CCC/C(C)=C/CC/C(C)=C/CSCCN=[N+]=[N-] | inactive | 11 | – |
| CC(C)=CCC/C(C)=C/CC/C(C)=C/CSCC(O)CO (configuration not stated) | inactive | 75 | – |
| CCOP(=O)(CCSC/C=C(\C)CC/C=C(\C)CCC=C(C)C)OCC | inactive | 36 | – |
| CC(=O)CSC/C=C(\C)CC/C=C(\C)CCC=C(C)C | inactive | 25 | – |
| COC(=O)CCSC/C=C(\C)CC/C=C(\C)CCC=C(C)C | inactive | 14 | – |
| COC(=O)C(C)(C)SC/C=C(\C)CC/C=C(\C)CCC=C(C)C | inactive | 8 | – |
| COC(=O)CSC/C=C(\C)CC/C=C(\C)CCC=C(C)C | inactive | 28 | – |
| CC(C)=CCC/C(C)=C/CC/C(C)=C/CSc1ccccc1C(=O)O | – | 40 | – |
| COC(=O)CSC/C=C(\C)CCC=C(C)C | inactive | 0 | – |

| SMILES | Activity [1] | inhibition [2] [%] | other results |
| --- | --- | --- | --- |
| CC(C)=CCC/C(C)=C/CSCC(=O)O | inactive | 0 | – |
| CC(C)=CCC/C(C)=C/CC/C(C)=C/CSCC=O | inactive | 13 | – |
| COC(=O)CSC/C=C(\C)CC/C=C(\C)CC/C=C(\C)CCC=C(C)C | inactive | 12 | – |
| CCOC(=O)NCCSC/C=C(\C)CC/C=C(\C)CCC=C(C)C | inactive | 10 | – |
| CC(=O)SC/C=C(\C)CC/C=C(\C)CCC=C(C)C | inactive | 3 | – |
| CC(C)=CCC/C(C)=C/CC/C(C)=C/CSCC(C)O (configuration not stated) | inactive | 72 | – |
| CC(C)=CCC/C(C)=C/CSCCO | inactive | 0 | – |
| CC(C)=CCC/C(C)=C/CC/C(C)=C/CC/C(C)=C/CSCCO | inactive | 40 | – |
| CC(C)=CCC/C(C)=C/CC/C(C)=C/CSCC(N)=O | inactive | 47 | – |
| COCCSC/C=C(\C)CC/C=C(\C)CCC=C(C)C | inactive | 0 | – |
| CC(C)=CCC/C(C)=C/CC/C(C)=C/CSCCCBr | inactive | 9 | – |
| CC(C)=CCC/C(C)=C/CC/C(C)=C/CSCC(=O)O | inactive | 50 | – |
| CCOP(=O)(CCCSC/C=C(\C)CC/C=C(\C)CCC=C(C)C)OCC | inactive | 20 | – |
| COC(=O)CSCC/C=C(\C)CC/C=C(\C)CCC=C(C)C | inactive | 12 | – |
| CC(C)=CCC/C(C)=C/CC/C(C)=C/CSCC(=O)NO | inactive | 36 | – |
| CC(C)=CCC/C(C)=C/CC/C(C)=C/CSC(F)(F)CO | inactive | 44 | – |
| CC(C)=CCC/C(C)=C/CC/C(C)=C/CSCCS | inactive | 0 | – |
| CC(C)=CCC/C(C)=C/CC/C(C)=C/CSC(C)C | inactive | 0 | – |
| CCCSC/C=C(\C)CC/C=C(\C)CCC=C(C)C | inactive | 0 | – |
| CC(=O)OCCSC/C=C(\C)CC/C=C(\C)CCC=C(C)C | inactive | 27 | – |

— ChEMBL document CHEMBL3217500, “Identification of a novel nanomolar inhibitor of hIcmt via a carboxylate replacement approach” (Medchemcomm, 2012)
